Measurements as given in patent US10829501B2 (BRISTOL-MYERS SQUIBB COMPANY, priority 2016, dated 2020).

What follows are compounds tested against ROCK2 (Homo sapiens, UniProt O75116) (assay: ROCK2 kinase inhibition assay (LABCHIP 3000 Reader, FITC peptide substrate);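 note: rho kinase reaction read by separating phosphorylated from unphosphorylated peptide on chip, with inhibition of kinase activity computed per concentration across a dose-response series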).
ROCK2, sequence (O75116 whole entry, species assumed): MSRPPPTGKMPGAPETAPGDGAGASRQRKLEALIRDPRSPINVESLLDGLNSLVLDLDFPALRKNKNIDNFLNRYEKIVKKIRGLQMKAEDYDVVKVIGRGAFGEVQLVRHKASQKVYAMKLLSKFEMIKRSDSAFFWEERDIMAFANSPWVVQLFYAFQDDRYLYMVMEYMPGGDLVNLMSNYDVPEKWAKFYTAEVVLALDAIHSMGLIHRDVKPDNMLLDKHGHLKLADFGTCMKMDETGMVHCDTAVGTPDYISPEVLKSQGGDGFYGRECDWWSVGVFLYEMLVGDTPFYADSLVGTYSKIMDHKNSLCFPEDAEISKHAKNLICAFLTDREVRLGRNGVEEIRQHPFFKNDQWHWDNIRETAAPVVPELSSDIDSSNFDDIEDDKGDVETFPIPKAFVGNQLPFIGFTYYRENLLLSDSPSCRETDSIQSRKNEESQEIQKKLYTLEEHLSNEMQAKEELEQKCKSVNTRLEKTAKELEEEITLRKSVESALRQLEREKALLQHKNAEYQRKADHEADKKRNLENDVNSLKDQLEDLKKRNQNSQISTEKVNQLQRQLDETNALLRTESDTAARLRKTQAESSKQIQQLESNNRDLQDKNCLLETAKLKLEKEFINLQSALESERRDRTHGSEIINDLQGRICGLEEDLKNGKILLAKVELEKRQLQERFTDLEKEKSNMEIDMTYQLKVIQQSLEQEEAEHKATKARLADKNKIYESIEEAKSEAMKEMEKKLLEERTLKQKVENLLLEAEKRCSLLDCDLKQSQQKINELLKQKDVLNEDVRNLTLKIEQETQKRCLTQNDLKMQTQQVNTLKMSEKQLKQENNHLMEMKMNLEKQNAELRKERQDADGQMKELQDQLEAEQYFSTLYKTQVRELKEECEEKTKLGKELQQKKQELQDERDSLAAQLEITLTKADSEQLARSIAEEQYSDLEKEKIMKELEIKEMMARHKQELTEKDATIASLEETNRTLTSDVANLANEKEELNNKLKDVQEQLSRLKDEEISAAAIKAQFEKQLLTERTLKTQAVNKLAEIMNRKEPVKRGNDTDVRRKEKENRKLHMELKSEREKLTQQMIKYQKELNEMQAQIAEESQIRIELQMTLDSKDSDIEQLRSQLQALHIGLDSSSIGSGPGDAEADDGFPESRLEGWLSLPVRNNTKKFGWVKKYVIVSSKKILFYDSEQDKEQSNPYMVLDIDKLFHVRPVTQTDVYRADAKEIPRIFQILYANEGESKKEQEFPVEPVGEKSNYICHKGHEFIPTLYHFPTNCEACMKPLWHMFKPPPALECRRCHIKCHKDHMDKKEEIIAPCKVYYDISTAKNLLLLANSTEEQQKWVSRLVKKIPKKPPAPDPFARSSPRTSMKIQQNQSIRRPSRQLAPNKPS

First: CC(C)(O)COc1ccc2c(C(=O)NC3CC4(C3)CC(Oc3cc(CC5CCNC5)ccc3C(N)=O)C4)cnn2c1 (centres unmarked) [Example 304, N-(6-(2-carbamoyl-5-(pyrrolidin-3-ylmethyl)phenoxy)spiro[3.3]heptan-2-yl)-6-(2-hydroxy-2-methylpropoxy)pyrazolo[1,5-a]pyridine-3-carboxamide]
Second: CC(C)(O)COc1ccc2c(C(=O)NC3CC4(C3)CC(Oc3cc(CCCCN)ccc3C(N)=O)C4)cnn2c1 (centres unmarked) [Example 305, N-(6-(5-(4-aminobutyl)-2-carbamoylphenoxy)spiro[3.3]heptan-2-yl)-6-(2-hydroxy-2-methylpropoxy)pyrazolo[1,5-a]pyridine-3-carboxamide]
The IC50 of the first is higher: 5 to 50 nM for the first, under 5 nM for the second. The second is the more potent here.

First: CC(C)(O)COc1ccc2c(C(=O)NC3CC4(C3)CC(Oc3nc(OCCN)ncc3C(N)=O)C4)cnn2c1C1CC1 (centres unmarked) [Example 306, N-(6-((2-(2-aminoethoxy)-5-carbamoylpyrimidin-4-yl)oxy)spiro[3.3]heptan-2-yl)-7-cyclopropyl-6-(2-hydroxy-2-methylpropoxy)pyrazolo[1,5-a]pyridine-3-carboxamide]
Second: CC(F)(F)COc1ccc2c(C(=O)N[C@H]3CC4(C3)C[C@H](Oc3ncccc3C(N)=O)C4)cnn2c1C1CC1 (stereo partly drawn) [Example 309, N-((aR)-6-((3-carbamoylpyridin-2-yl)oxy)spiro[3.3]heptan-2-yl)-7-cyclopropyl-6-(2,2-difluoropropoxy)pyrazolo[1,5-a]pyridine-3-carboxamide]
The IC50 of the first is higher: 50 to 250 nM for the first, under 5 nM for the second. The second is the more potent here.

First: [H][C@]1(Oc2ncccc2C(N)=O)C[C@@]2(C[C@H](NC(=O)c3cnn4c(Br)c(OCC(C)(F)F)ccc34)C2)C1 (stereo partly drawn) [Example 307, 7-bromo-N-((aR)-6-((3-carbamoylpyridin-2-yl)oxy)spiro[3.3]heptan-2-yl)-6-(2,2-difluoropropoxy)pyrazolo[1,5-a]pyridine-3-carboxamide]
Second: CC(F)(F)COc1ccc2c(C(=O)N[C@H]3CC4(C3)C[C@H](Oc3ncccc3C(N)=O)C4)cnn2c1-c1cn[nH]c1 (stereo partly drawn) [Example 310, N-((aR)-6-((3-carbamoylpyridin-2-yl)oxy)spiro[3.3]heptan-2-yl)-6-(2,2-difluoropropoxy)-7-(1H-pyrazol-4-yl)pyrazolo[1,5-a]pyridine-3-carboxamide]
The IC50 of the first is higher: 5 to 50 nM for the first, under 5 nM for the second.

First: CC(F)(F)COc1ccc2c(C(=O)N[C@H]3CC4(C3)C[C@H](Oc3ncccc3C(N)=O)C4)cnn2c1 (stereo partly drawn) [Example 308, N-((aR)-6-((3-carbamoylpyridin-2-yl)oxy)spiro[3.3]heptan-2-yl)-6-(2,2-difluoropropoxy)pyrazolo[1,5-a]pyridine-3-carboxamide]
Second: NC(=O)c1cccnc1O[C@H]1CC2(C[C@H](NC(=O)c3cnn4cc(OCC(F)F)ccc34)C2)C1 (stereo partly drawn) [Example 313, N-((aR)-6-((3-carbamoylpyridin-2-yl)oxy)spiro[3.3]heptan-2-yl)-6-(2,2-difluoroethoxy)pyrazolo[1,5-a]pyridine-3-carboxamide]
The IC50 of the first is lower: under 5 nM for the first, 5 to 50 nM for the second.

First: NC(=O)c1cccnc1O[C@H]1CC2(C[C@H](NC(=O)c3cnn4ccccc34)C2)C1 (stereo partly drawn) [Example 311, N-((aR)-6-((3-carbamoylpyridin-2-yl)oxy)spiro[3.3]heptan-2-yl)pyrazolo[1,5-a]pyridine-3-carboxamide]
Second: NC(=O)c1cccnc1O[C@H]1CC2(C[C@H](NC(=O)c3cnn4cc(OC(F)F)ccc34)C2)C1 (stereo partly drawn) [Example 312, N-((aR)-6-((3-carbamoylpyridin-2-yl)oxy)spiro[3.3]heptan-2-yl)-6-(difluoromethoxy)pyrazolo[1,5-a]pyridine-3-carboxamide]
The IC50 of the first is higher: 50 to 250 nM for the first, 5 to 50 nM for the second.

First: NC(=O)c1cccnc1O[C@H]1CC2(C[C@H](NC(=O)c3cnn4cc(OCC(O)C(F)(F)F)ccc34)C2)C1 (stereo partly drawn) [Example 314, N-((aR)-6-((3-carbamoylpyridin-2-yl)oxy)spiro[3.3]heptan-2-yl)-6-(3,3,3-trifluoro-2-hydroxypropoxy)pyrazolo[1,5-a]pyridine-3-carboxamide]
Second: C[C@@H](O)COc1ccc2c(C(=O)N[C@H]3CC4(C3)C[C@H](Oc3ncccc3C(N)=O)C4)cnn2c1 (stereo partly drawn) [Example 330, N-((aR)-6-((3-carbamoylpyridin-2-yl)oxy)spiro[3.3]heptan-2-yl)-6-((R)-2-hydroxypropoxy)pyrazolo[1,5-a]pyridine-3-carboxamide]
The IC50 of the first is lower: under 5 nM for the first, 5 to 50 nM for the second. The first is the more potent here.

First: NC(=O)c1cccnc1O[C@H]1CC2(C[C@H](NC(=O)c3cnn4cc(OCC(O)(C(F)(F)F)C(F)(F)F)ccc34)C2)C1 (stereo partly drawn) [Example 315, N-((aR)-6-((3-carbamoylpyridin-2-yl)oxy)spiro[3.3]heptan-2-yl)-6-(3,3,3-trifluoro-2-hydroxy-2-(trifluoromethyl)propoxy)pyrazolo[1,5-a]pyridine-3-carboxamide]
Second: NC(=O)c1cccnc1O[C@H]1CC2(C[C@H](NC(=O)c3cnn4cc(N5CC[C@@H](F)C5)ccc34)C2)C1 (stereo partly drawn) [Example 318, N-((aR)-6-((3-carbamoylpyridin-2-yl)oxy)spiro[3.3]heptan-2-yl)-6-((R)-3-fluoropyrrolidin-1-yl)pyrazolo[1,5-a]pyridine-3-carboxamide]
The IC50 of the first is higher: 5 to 50 nM for the first, under 5 nM for the second. The second is the more potent here.

First: NC(=O)c1cccnc1O[C@H]1CC2(C[C@H](NC(=O)c3cnn4cc(N5CCC(F)(F)CC5)ccc34)C2)C1 (stereo partly drawn) [Example 316, N-((aR)-6-((3-carbamoylpyridin-2-yl)oxy)spiro[3.3]heptan-2-yl)-6-(4,4-difluoropiperidin-1-yl)pyrazolo[1,5-a]pyridine-3-carboxamide]
Second: NC(=O)c1cccnc1O[C@H]1CC2(C[C@H](NC(=O)c3cnn4cc(N5CCOCC5)ccc34)C2)C1 (stereo partly drawn) [Example 317, N-((aR)-6-((3-carbamoylpyridin-2-yl)oxy)spiro[3.3]heptan-2-yl)-6-morpholinopyrazolo[1,5-a]pyridine-3-carboxamide]
The IC50 of the first is lower: under 5 nM for the first, 5 to 50 nM for the second. The first is the more potent here.

Compared with `CN1CCN(c2ccc3c(C(=O)N[C@H]4CC5(C4)C[C@H](Oc4ncccc4C(N)=O)C5)cnn3c2)CC1` (stereo partly drawn) [Example 319, N-((aR)-6-((3-carbamoylpyridin-2-yl)oxy)spiro[3.3]heptan-2-yl)-6-(4-methylpiperazin-1-yl)pyrazolo[1,5-a]pyridine-3-carboxamide], `NC(=O)c1cccnc1O[C@H]1CC2(C[C@H](NC(=O)c3cnc4cc(N5CCC(F)(F)CC5)ccn34)C2)C1` (stereo partly drawn) [Example 324, N-((aR)-6-((3-carbamoylpyridin-2-yl)oxy)spiro[3.3]heptan-2-yl)-7-(4,4-difluoropiperidin-1-yl)imidazo[1,2-a]pyridine-3-carboxamide] is lower in IC50: 5 to 50 nM for the first, under 5 nM for the second. The second is the more potent here.

`CC(C)c1c(OCC(C)(C)O)ccc2c(C(=O)N[C@H]3CC4(C3)C[C@H](Oc3ncccc3C(N)=O)C4)cnn12` (stereo partly drawn) [Example 320, N-((aR)-6-((3-carbamoylpyridin-2-yl)oxy)spiro[3.3]heptan-2-yl)-6-(2-hydroxy-2-methylpropoxy)-7-isopropylpyrazolo[1,5-a]pyridine-3-carboxamide] and `Cc1c(OCC(C)(C)O)ccc2c(C(=O)N[C@H]3CC4(C3)C[C@H](Oc3ncccc3C(N)=O)C4)cnn12` (stereo partly drawn) [Example 321, N-((aR)-6-((3-carbamoylpyridin-2-yl)oxy)spiro[3.3]heptan-2-yl)-6-(2-hydroxy-2-methylpropoxy)-7-methylpyrazolo[1,5-a]pyridine-3-carboxamide] fall in the same range of IC50: 5 to 50 nM for the first, 5 to 50 nM for the second.

`NC(=O)c1cccnc1O[C@H]1CC2(C[C@H](NC(=O)c3cnc4cc(N5CC[C@H](F)C5)ccn34)C2)C1` (stereo partly drawn) [Example 322, N-((aR)-6-((3-carbamoylpyridin-2-yl)oxy)spiro[3.3]heptan-2-yl)-7-((S)-3-fluoropyrrolidin-1-yl)imidazo[1,2-a]pyridine-3-carboxamide] and `NC(=O)c1cccnc1O[C@H]1CC2(C[C@H](NC(=O)c3cnc4cc(N5CC[C@@H](F)C5)ccn34)C2)C1` (stereo partly drawn) [Example 329, N-((aR)-6-((3-carbamoylpyridin-2-yl)oxy)spiro[3.3]heptan-2-yl)-7-((R)-3-fluoropyrrolidin-1-yl)imidazo[1,2-a]pyridine-3-carboxamide] cannot be ordered by IC50: under 5 nM for the first, under 5 nM for the second.

First: NC(=O)c1cccnc1O[C@H]1CC2(C[C@H](NC(=O)c3cnc4cc(N5CCC(F)(F)C5)ccn34)C2)C1 (stereo partly drawn) [Example 323, N-((aR)-6-((3-carbamoylpyridin-2-yl)oxy)spiro[3.3]heptan-2-yl)-7-(3,3-difluoropyrrolidin-1-yl)imidazo[1,2-a]pyridine-3-carboxamide]
Second: NC(=O)c1cccnc1O[C@H]1CC2(C[C@H](NC(=O)c3cnc4cc(N5CC[C@@H](O)C5)ccn34)C2)C1 (stereo partly drawn) [Example 326, N-((aR)-6-((3-carbamoylpyridin-2-yl)oxy)spiro[3.3]heptan-2-yl)-7-((R)-3-hydroxypyrrolidin-1-yl)imidazo[1,2-a]pyridine-3-carboxamide]
The IC50 of the first is lower: under 5 nM for the first, 5 to 50 nM for the second. The first is the more potent here.

`NC(=O)c1cccnc1O[C@H]1CC2(C[C@H](NC(=O)c3cnc4cc(OCCN5CCCC5)ccn34)C2)C1` (stereo partly drawn) [Example 325, N-((aR)-6-((3-carbamoylpyridin-2-yl)oxy)spiro[3.3]heptan-2-yl)-7-(2-(pyrrolidin-1-yl)ethoxy)imidazo[1,2-a]pyridine-3-carboxamide] and `NC(=O)c1cccnc1O[C@H]1CC2(C[C@H](NC(=O)c3cnc4cc(OCC(F)F)ccn34)C2)C1` (stereo partly drawn) [Example 331, N-((aR)-6-((3-carbamoylpyridin-2-yl)oxy)spiro[3.3]heptan-2-yl)-7-(2,2-difluoroethoxy)imidazo[1,2-a]pyridine-3-carboxamide] fall in the same range of IC50: 5 to 50 nM for the first, 5 to 50 nM for the second.

`NC(=O)c1cccnc1O[C@H]1CC2(C[C@H](NC(=O)c3cnc4ccc(F)cn34)C2)C1` (stereo partly drawn) [Example 327, N-((aR)-6-((3-carbamoylpyridin-2-yl)oxy)spiro[3.3]heptan-2-yl)-6-fluoroimidazo[1,2-a]pyridine-3-carboxamide] and `CC(O)c1ccn2c(C(=O)N[C@H]3CC4(C3)C[C@H](Oc3ncccc3C(N)=O)C4)cnc2c1` (stereo partly drawn) [Example 328, N-((aR)-6-((3-carbamoylpyridin-2-yl)oxy)spiro[3.3]heptan-2-yl)-7-(1-hydroxyethyl)imidazo[1,2-a]pyridine-3-carboxamide] fall in the same range of IC50: 50 to 250 nM for the first, 50 to 250 nM for the second.

With `NC(=O)c1cccnc1O[C@H]1CC2(C[C@H](NC(=O)c3cnc4cc(OC(CF)CF)ccn34)C2)C1` (stereo partly drawn) [Example 332, N-((aR)-6-((3-carbamoylpyridin-2-yl)oxy)spiro[3.3]heptan-2-yl)-7-((1,3-difluoropropan-2-yl)oxy)imidazo[1,2-a]pyridine-3-carboxamide] the IC50 was 5 to 50 nM.
